Assay results reported in patent publication US12251410B2, “Anticancer trail-targeted plant virus particles” (CASE WESTERN RESERVE UNIVERSITY, priority 2017, dated 2025).
Entries after “also recorded” stand apart in the source; their conditions may differ.

Columns and labels:
[1] = background statement; cited from earlier work
[2] = system: MDA-MB-231 triple negative breast cancer cell line; assay: MTT cytotoxicity assay, MDA-MB-231; assay type: cell-based; settings: 12 h incubation, normalized to TRAIL, GraphPad Prism
Procedure: (§1) Herein, a panel of triple negative breast cancer (TNBC) cell lines, MDA-MB-231, HCC-38, and BT-549, were used.
(§2) Triple negative breast cancer cell lines MDA-MB-231, HCC-38, and BT-549 cell lines (provided by Prof. Ruth Keri, Case Western Reserve University) and HER-2 amplified breast cancer cell line SK-BR-3 (ATCC). MDA-MB-231, HCC-38, BT-549, and SK-BR-3 were cultured in Dulbecco's modified Eagle's medium (DMEM) and Roswell Park Memorial Institute (RPMI) 1640 medium without or with insulin (0.023 IU/mL final concentration), and McCoy's 5A medium, respectively. All media were supplemented with 10% (v/v) fetal bovine serum (FBS) and 1% (v/v) penicillin/streptomycin. All cells were maintained at 37° C. and 5% CO2.
(§3) Cells (MDA-MB-231, HCC-38, BT-549, and SK-BR-3) were seeded at 5,000 cells per well in culture medium in 96-well plates 1 day prior to treatment. […] Samples were prepared in triplicate and each assay was performed at least twice. […] Following incubation, cells were washed with PBS, pH 7.4 and fresh medium was replenished; then 10 μL MTT reagent was added as per manufacturer's instructions. Absorbance was determined using the Tecan infinite-M200 plate reader.

[3] = system: HCC-38 cell line (TNBC); assay: MTT cytotoxicity assay, HCC-38; assay type: cell-based; settings: 12 h incubation, normalized to TRAIL, GraphPad Prism
Procedure: as §1, §2, §3

[4] = system: BT-549 cell line (TNBC); assay: MTT cytotoxicity assay, BT-549; assay type: cell-based; settings: 12 h incubation, normalized to TRAIL, GraphPad Prism
Procedure: as §1, §2, §3

[5] = system: SK-BR-3, HER2-amplified breast cancer cell line; assay: MTT cytotoxicity assay, SK-BR-3; assay type: cell-based; settings: HER-2 amplified breast cancer cell line
Procedure: Data are expressed as means±SD.
as §1, §2, §3

[6] = system: caspase-8; assay: Caspase-Glo 8 assay in MDA-MB-231 cells; assay type: cell-based; settings: 20 ng/mL HisTRAIL, 3 h
From the text: (§4) TRAIL-DR4/5 receptor binding activates caspase-dependent apoptosis. Specifically, TRAIL-DR4/5 receptor binding induces receptor oligomerization, followed by the recruitment of FAS-associated protein with death domain (FADD) and pro-caspase-8 to form a functional death-inducing signaling complex (DISC) at the plasma membrane. Subsequently, caspase-8 is activated and released into the cytosol, where it cleaves and activates caspase-3 or -7 to execute the apoptosis in cancer cells (FIG. 4). […] The drugs were incubated with MDA-MB-231 cells for 3 h before adding reagents from Caspase-Glo 8 and Caspase-Glo 3/7 Assay Kit. The assay was performed as per manufacturer's instructions.
(§5) Determination of levels of activated caspase-8 and caspase-3/7 MDA-MB-231 cells were seeded at 5,000 cells per well in a white-walled 96-well luminometer microplate one day prior to treatment. […] Non-treated cells were used as control. Samples were prepared in triplicate. Caspase-Glo 8 assay kit and Caspase-Glo 3/7 assay kit (Promega) were used to determine the level of activated caspases. Briefly, the reagent causes cell lysis, followed by caspase cleavage of the substrate and aminoluciferin which produces a luminescent signal in the presence of luciferase and ATP from the kit. Luminescence was read by the Tecan infinite-M200 plate reader to determine the proportional activated level of caspase 8- and 3/7.

[7] = system: caspase-3/7; assay: Caspase-Glo 3/7 assay in MDA-MB-231 cells; assay type: cell-based; settings: 20 ng/mL HisTRAIL, 3 h
From the text: as §4, §5

[8] = system: subcutaneous MDA-MB-231 tumors; assay: Treatment of MDA-MB-231 xenografts in athymic nude mice; assay type: in vivo, mouse
Procedure: FIGS. 3(A-C) are graphs and images illustrating treatment of MDA-MB-231 xenografts in an athymic nude mouse model. 6-week-old female NCR nu/nu mice were injected subcutaneously into the right flank with 2×10^6 cells; treatment began when tumor volume reached 100-150 mm^3, approximately 2 weeks after tumor cell inoculation. […] 20 μL PBS or corresponding particle amount of PVXNi were injected as controls. Tumor volume was normalized at the initial day. Data were expressed as expressed as means+SD. (A) Tumor growth curve during treatment. (B) Tumor volume distribution in each group during treatment. (C) Representative of isolated tumor tissues after treatment.
Treatment started when the tumor volume reached 100-150 mm^3. […] While we envision systemic administration for clinical applications, we started here by evaluating intratumoral treatments to focus on the question as to whether PVX-delivered HisTRAIL would outperform free HisTRAIL; the intratumoral treatment allows one to precisely control and match the dosing, and, thus, eliminates confounding factors from varying biodistribution. […]
The animal study was carried using an IACUC-approved protocol. […] Tumors were measured daily and the volume was calculated using the formula v=(l×w^2)/2, where l is the length and w is the width of tumor. […] All results are expressed as means±SD, calculated by GraphPad Prism. […]

phenanthriplatin
potency compared to cisplatin, carboplatin and oxalatoplatin [1]: 40 ×

HisTRAIL: Recombinant human TRAIL (aa 114-281) with N-terminal His-tag and thrombin cleavage sequence, expressed in ClearColi BL21(DE)3
IC50 values, MDA-MB-231 [2]: 0.0866 µg/mL
IC50 values, MDA-MB-231 ([2]; listed as HiTRAIL): 0.0868 µg/mL
IC50 values, HCC-38 [3]: 0.3672 µg/mL
IC50 values, BT-549 [4]: 0.543 µg/mL
cell killing / apoptosis induction in SK-BR-3 [5]: Neither PVX-HisTRAIL nor HisTRAIL did induce apoptosis; also recorded: did not show cell killing efficacy
level of caspase 8, increase compared to PBS control [6]: 1.38 fold
caspase 3/7 increase vs. PBS controls [7]: 1.5 fold
average relative tumor volume increase vs. starting volume ([8]; day 30 post first treatment, intratumoral every 2 days, 5 μg His-TRAIL/injection (PVX-Ni at corresponding particle amount)): 2.53 fold
tumor growth inhibition (in words) ([8]; intratumoral, athymic nude mice with MDA-MB-231 tumors, vs PBS control): effective inhibition
